Reference: US8895733B2 (Novartis AG, priority 2010, dated 2014)
Where two headings read alike, the source gives them in different places.

Biological target: T1, Nav 1.7 (Homo sapiens, UniProt Q15858)
T1 construct: expressed in transfected cells
Experiment: Whole-cell voltage clamp electrophysiology, manual patch clamp (marker b in Table of Examples)
Type: cell-based
Conditions: read-out: Nav 1.7 activity
From the text: a.IonWork Quattro data, b=Manual patch clamp data, c=Automated patch clamp data M=Method
Whole-Cell Voltage Clamp Electrophysiology Assay
Patch-clamp electrophysiology is considered the gold standard technique for investigation of ion channel function and pharmacology. Using this method, sodium channel currents can be measured in cells, which stably (or transiently) express the sodium channel subtype of interest. Application of compounds during such experiments provides a functional measure of the activity and potency of compounds affecting the ion channel of interest.
Electrophysiological studies can also be performed using the whole cell configuration of the standard manual patch clamp technique as described in the literature (e.g. Pflugers Arch., 1981, 391(2), 85-100). In this assay, cells that express the voltage-gated sodium channel protein of interest are exposed to the drugs by conventional microperfusion systems, or by a home-built perfusion system. A suitable voltage stimulus protocol is used to activate the voltage-gated sodium channels.
A suitable voltage stimulus protocol is used to activate voltage-gated sodium channel proteins of interest. A typical stimulus protocol may consist of sweeps of sequential voltage pulses starting from a holding potential (i.e. −65 mV), to a more positive and depolarising test pulse potential (i.e. −10 mV) and finally to a more negative and hyperpolarising potential (i.e. −100 mV). According to the biophysics of the voltage-gated ion channel of interest and interest in channel configuration the voltages and durations of the pulses as well as the overall frequency of sweeps applied might vary. Accordingly, a stimulus protocol was designed to assess compounds due to their potential to block NaV1.7 channels primarily in inactivated state. Selectivity over other voltage-gated sodium channel members was assessed by protocols that reflect the native function of the channels (i.e. heart rate or firing of neurons).
Electrophysiological studies can also be performed using the whole cell configuration of the standard manual patch clamp technique as described in the literature (e.g. Pflugers Arch., 1981, 391(2), 85-100). In this assay, cells that express the human voltage-gated sodium channel protein of interest are exposed to the drugs by conventional microperfusion systems, or by a home-built perfusion system. A suitable voltage stimulus protocol is used to activate the voltage-gated sodium channels. A suitable voltage stimulus protocol may consist of sequential voltage pulses from a holding potential, each first hyperpolarizing the cell, then depolarizing the channels for a brief period. A particularly suitable holding potential may be a voltage allowing a fraction of channels to remain in an inactivated state, like −60 mV. A suitable hyperpolarizing voltage and duration may be −120 mV for 100 ms, and depolarization voltage and duration may be −20 mV for 25 ms, and a suitable frequency of pulses may be 0.1 Hz, but may also have other parameters. Accordingly, a stimulus protocol was designed to assess compounds due to their potential to block NaV1.7 channels primarily in inactivated state. Selectivity over other voltage-gated sodium channel members was assessed by protocols that reflect the native function of the channels (i.e. heart rate or firing of neurons).

[1] = marker b: Manual patch clamp data
[2] = marker b = Manual patch clamp data

T1 sequence (Q15858 whole entry): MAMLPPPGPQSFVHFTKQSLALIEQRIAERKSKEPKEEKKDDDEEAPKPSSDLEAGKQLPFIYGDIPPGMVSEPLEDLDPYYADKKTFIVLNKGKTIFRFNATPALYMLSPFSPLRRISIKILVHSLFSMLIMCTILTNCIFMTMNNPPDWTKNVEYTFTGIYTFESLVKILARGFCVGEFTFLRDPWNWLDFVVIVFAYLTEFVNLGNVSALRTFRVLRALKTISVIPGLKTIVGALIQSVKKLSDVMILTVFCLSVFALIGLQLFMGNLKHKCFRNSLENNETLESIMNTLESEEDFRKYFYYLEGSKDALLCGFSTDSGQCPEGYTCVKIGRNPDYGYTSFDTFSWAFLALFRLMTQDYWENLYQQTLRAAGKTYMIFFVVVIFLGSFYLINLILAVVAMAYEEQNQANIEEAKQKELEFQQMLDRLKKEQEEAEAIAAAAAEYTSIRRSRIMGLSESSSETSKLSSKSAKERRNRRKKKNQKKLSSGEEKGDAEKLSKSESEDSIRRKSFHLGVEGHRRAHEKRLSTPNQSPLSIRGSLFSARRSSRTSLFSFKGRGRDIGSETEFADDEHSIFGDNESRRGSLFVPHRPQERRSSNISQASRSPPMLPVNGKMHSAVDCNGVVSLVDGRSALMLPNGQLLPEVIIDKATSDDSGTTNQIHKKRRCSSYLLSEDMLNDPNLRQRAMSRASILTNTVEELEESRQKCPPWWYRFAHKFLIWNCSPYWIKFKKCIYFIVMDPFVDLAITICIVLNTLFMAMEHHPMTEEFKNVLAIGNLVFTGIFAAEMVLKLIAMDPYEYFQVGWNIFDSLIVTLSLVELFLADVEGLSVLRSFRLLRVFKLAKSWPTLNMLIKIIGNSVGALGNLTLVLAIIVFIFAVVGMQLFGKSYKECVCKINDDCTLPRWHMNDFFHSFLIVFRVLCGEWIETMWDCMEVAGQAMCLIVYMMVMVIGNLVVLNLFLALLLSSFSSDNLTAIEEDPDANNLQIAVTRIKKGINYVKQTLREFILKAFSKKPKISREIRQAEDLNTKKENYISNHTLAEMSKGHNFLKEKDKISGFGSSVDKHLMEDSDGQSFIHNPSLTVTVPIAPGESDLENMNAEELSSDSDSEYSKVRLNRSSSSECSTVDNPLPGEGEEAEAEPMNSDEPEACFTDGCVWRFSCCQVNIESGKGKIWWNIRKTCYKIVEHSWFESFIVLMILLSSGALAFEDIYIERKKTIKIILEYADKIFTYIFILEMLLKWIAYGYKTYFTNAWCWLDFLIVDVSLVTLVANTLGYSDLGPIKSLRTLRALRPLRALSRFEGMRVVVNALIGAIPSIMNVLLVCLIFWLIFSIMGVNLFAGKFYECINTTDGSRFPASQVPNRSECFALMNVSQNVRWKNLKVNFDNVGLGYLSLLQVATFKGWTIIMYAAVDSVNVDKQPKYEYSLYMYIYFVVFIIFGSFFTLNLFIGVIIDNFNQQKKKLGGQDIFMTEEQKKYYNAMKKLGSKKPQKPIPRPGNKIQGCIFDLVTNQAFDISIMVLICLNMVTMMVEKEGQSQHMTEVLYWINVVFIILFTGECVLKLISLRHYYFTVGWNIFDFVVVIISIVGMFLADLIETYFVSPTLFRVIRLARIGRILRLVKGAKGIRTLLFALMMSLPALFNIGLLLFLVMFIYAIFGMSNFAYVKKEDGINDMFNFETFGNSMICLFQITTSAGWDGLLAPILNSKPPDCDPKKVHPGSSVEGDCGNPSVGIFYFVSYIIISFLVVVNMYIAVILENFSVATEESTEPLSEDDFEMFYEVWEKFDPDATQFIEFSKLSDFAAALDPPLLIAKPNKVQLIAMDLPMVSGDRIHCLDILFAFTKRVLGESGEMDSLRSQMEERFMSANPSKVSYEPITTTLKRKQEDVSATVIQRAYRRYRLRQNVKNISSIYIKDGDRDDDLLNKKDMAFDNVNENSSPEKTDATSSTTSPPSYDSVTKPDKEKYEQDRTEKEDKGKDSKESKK

Row | SMILES | IC50 [1] [nM] | IC50 [2] [nM]
1 | Nc1nc(Nc2cccc(F)c2F)nc(-c2noc(-c3ccco3)n2)n1 [Example 113, N-(2,3-Difluoro-phenyl)-6-(5-furan-2-yl-[1,2,4]oxadiazol-3-yl)-[1,3,5]triazine-2,4-diamine] | 118 | 
2 | Nc1nc(Nc2cccc(F)c2)nc(-c2noc(-c3ccco3)n2)n1 [Example 117, N-(3-Fluorophenyl)-6-(5-furan-2-yl-[1,2,4]oxadiazol-3-yl)-[1,3,5]triazine-2,4-diamine] | 42 | 
3 | COCCN(c1ccccc1)c1nc(N)nc(-c2noc(-c3ccco3)n2)n1 [Example 119, 6-(5-Furan-2-yl-[1,2,4]oxadiazol-3-yl)-N-(2-methoxy-ethyl)-N-phenyl-[1,3,5]triazine-2,4-diamine] | 400 | 
4 | CN(c1cccc(F)c1)c1nc(N)nc(-c2noc(-c3ccc(OCC4CC4)nc3)n2)n1 [Example 135, 6-{5-[6-(cyclopropylmethoxy)pyridin-3-yl]-1,2,4-oxadiazol-3-yl}-2-N-(3-fluorophenyl)-2-N-methyl-1,3,5-triazine-2,4-diamine] | 44 | 
5 | COCCN(c1ccccc1)c1nc(N)nc(-c2noc(-c3ccc(OCC(F)(F)F)nc3)n2)n1 [Example 156, 2-N-(2-Methoxyethyl)-2-N-phenyl-6-{5-[6-(2,2,2-trifluoroethoxy)pyridin-3-yl]-1,2,4-oxadiazol-3-yl}-1,3,5-triazine-2,4-diamine] | 65 | 
6 | CN(c1ccccc1)c1nc(N)nc(-c2noc(N3CCC(COCC(F)(F)F)CC3)n2)n1 [Example 167, 2-N-Methyl-2-N-phenyl-6-(5-{4-[(2,2,2-trifluoroethoxy)methyl]piperidin-1-yl}-1,2,4-oxadiazol-3-yl)-1,3,5-triazine-2,4-diamine] | 235 | 
7 | CN(c1ccccc1)c1nc(N)nc(-c2noc(C3CCN(Cc4ccccc4)C3)n2)n1 (stereo not drawn) [Example 207, 6-[5-(1-benzylpyrrolidin-3-yl)-1,2,4-oxadiazol-3-yl]-2-N-methyl-2-N-phenyl-1,3,5-triazine-2,4-diamine] |  | 97
8 | CN(c1ccccc1)c1nc(N)nc(-c2noc(N3CCC(COCC4CC4)CC3)n2)n1 [Example 216, 6-(5-{4-[(Cyclopropylmethoxy)methyl]piperidin-1-yl}-1,2,4-oxadiazol-3-yl)-2-N-methyl-2-N-phenyl-1,3,5-triazine-2,4-diamine] |  | 283
9 | COC1CCN(c2nc(-c3nc(N)nc(Nc4ccccc4)n3)no2)CC1 [Example 238, 6-[5-(4-methoxypiperidin-1-yl)-1,2,4-oxadiazol-3-yl]-2-N-phenyl-1,3,5-triazine-2,4-diamine] |  | 761
10 | CN(c1ccccc1)c1nc(N)nc(-c2noc(C(=O)N3CCC(OCC(F)(F)F)CC3)n2)n1 [Example 262, 2-N-methyl-2-N-phenyl-6-(5-{[4-(2,2,2-trifluoroethoxy)piperidin-1-yl]carbonyl}-1,2,4-oxadiazol-3-yl)-1,3,5-triazine-2,4-diamine] |  | 400
11 | Nc1nc(Nc2ccccc2)nc(-c2noc(-c3ccc(COCC(F)(F)F)nc3)n2)n1 [Example 303, 2-N-phenyl-6-(5-{6-[(2,2,2-trifluoroethoxy)methyl]pyridin-3-yl}-1,2,4-oxadiazol-3-yl)-1,3,5-triazine-2,4-diamine] |  | 24
12 | CN(c1ccccc1)c1nc(N)nc(-c2noc(N3CCC(OCC(F)(F)F)CC3)n2)n1 [Example 335, 2-N-methyl-2-N-phenyl-6-{5-[4-(2,2,2-trifluoroethoxy)piperidin-1-yl]-1,2,4-oxadiazol-3-yl}-1,3,5-triazine-2,4-diamine] |  | 701
13 | Nc1nc(Nc2ccccc2)nc(-c2noc(-c3ncccc3F)n2)n1 [Example 346, 6-[5-(3-Fluoropyridin-2-yl)-1,2,4-oxadiazol-3-yl]-2-N-phenyl-1,3,5-triazine-2,4-diamine] |  | 337
14 | CN(c1nc(N)nc(-c2noc(-c3ccc(OCC(F)(F)F)nc3)n2)n1)c1cccc(F)c1F [Example 411, 2-N-(2,3-difluorophenyl)-2-N-methyl-6-{5-[6-(2,2,2-trifluoroethoxy)pyridin-3-yl]-1,2,4-oxadiazol-3-yl}-1,3,5-triazine-2,4-diamine] |  | 17
15 | CN(c1ccccc1)c1nc(N)nc(-c2noc(N3CC(Oc4ccccc4)C3)n2)n1 [Example 489, 2-N-methyl-6-[5-(3-phenoxyazetidin-1-yl)-1,2,4-oxadiazol-3-yl]-2-N-phenyl-1,3,5-triazine-2,4-diamine] |  | 127

Now from value to molecule:

Row | IC50 [1] [nM] | IC50 [2] [nM] | SMILES
16 | 635 |  | CN(c1ccccc1)c1nc(N)nc(-c2noc(-c3ccc(OC(F)(F)F)nc3)n2)n1 [Example 133, 2-N-methyl-2-N-phenyl-6-{5-[6-(trifluoromethoxy)pyridin-3-yl]-1,2,4-oxadiazol-3-yl}-1,3,5-triazine-2,4-diamine]
17 |  | 815 | CN(c1ccccc1)c1nc(N)nc(-c2noc(-c3ccn(CC(F)(F)F)n3)n2)n1 [Example 256, 2-N-Methyl-2-N-phenyl-6-{5-[1-(2,2,2-trifluoroethyl)-1H-pyrazol-3-yl]-1,2,4-oxadiazol-3-yl}-1,3,5-triazine-2,4-diamine]
18 |  | 945 | Cc1cccc(-c2nc(-c3nc(N)nc(N(C)c4ccccc4)n3)no2)n1 [Example 271, 2-N-methyl-6-[5-(6-methylpyridin-2-yl)-1,2,4-oxadiazol-3-yl]-2-N-phenyl-1,3,5-triazine-2,4-diamine]
19 |  | 1060 | CN(c1ccccc1)c1nc(N)nc(-c2noc(-c3ncccn3)n2)n1 [Example 278, 2-N-methyl-2-N-phenyl-6-[5-(pyrimidin-2-yl)-1,2,4-oxadiazol-3-yl]-1,3,5-triazine-2,4-diamine]
20 |  | 308 | COc1cnc(-c2nc(-c3nc(N)nc(N(C)c4ccccc4)n3)no2)c(OC)c1 [Example 282, 6-[5-(3,5-Dimethoxypyridin-2-yl)-1,2,4-oxadiazol-3-yl]-2-N-methyl-2-N-phenyl-1,3,5-triazine-2,4-diamine]
21 |  | 276 | CN(c1ccccc1)c1nc(N)nc(-c2noc(-c3ccc([S+]([O-])CC(F)(F)F)nc3)n2)n1 (stereo not drawn) [Example 320, 2-N-methyl-2-N-phenyl-6-(5-{6-[(2,2,2-trifluoroethane)sulfinyl]pyridin-3-yl}-1,2,4-oxadiazol-3-yl)-1,3,5-triazine-2,4-diamine]
22 |  | 1490 | Cc1csc(-c2nc(-c3nc(N)nc(N(C)c4ccccc4)n3)no2)n1 [Example 341, 2-N-methyl-6-[5-(4-methyl-1,3-thiazol-2-yl)-1,2,4-oxadiazol-3-yl]-2-N-phenyl-1,3,5-triazine-2,4-diamine]
23 |  | 900 | CN(c1ccccc1)c1nc(N)nc(-c2noc(-c3ccnc(OCC(F)(F)F)c3)n2)n1 [Example 472, 2-N-methyl-2-N-phenyl-6-{5-[2-(2,2,2-trifluoroethoxy)pyridin-4-yl]-1,2,4-oxadiazol-3-yl}-1,3,5-triazine-2,4-diamine]
24 |  | 172 | CN(c1ccccc1)c1nc(N)nc(-c2noc(-c3cccnc3OCC(F)(F)F)n2)n1 [Example 477, 2-N-methyl-2-N-phenyl-6-{5-[2-(2,2,2-trifluoroethoxy)pyridin-3-yl]-1,2,4-oxadiazol-3-yl}-1,3,5-triazine-2,4-diamine]
